In patent publication US9546164B2 (GENENTECH, INC., priority 2013, dated 2017):
Structures can show the parent of a compound that is named as a salt. Where two headings read alike, the source gives them in different places.

Molecular target: hNav1.7 (Homo sapiens (Human), UniProt Q15858)
Experiment: Tritiated sulfonamide competitive binding to membranes from cells expressing hNav1.7 and the β1 subunit;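 further: Filter-bound radioactivity counted by liquid scintillation, nonspecific binding defined with excess unlabelled ligand, IC50 fitted to percent inhibition of specific binding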
[1] = read-out: Ligand Binding Assay, 100 pM [3H]compound, membranes with hNav1.7 and β1 subunit, 18 h, room temperature

hNav1.7, sequence (Q15858 other isoform, or with tags, fused parts or gaps): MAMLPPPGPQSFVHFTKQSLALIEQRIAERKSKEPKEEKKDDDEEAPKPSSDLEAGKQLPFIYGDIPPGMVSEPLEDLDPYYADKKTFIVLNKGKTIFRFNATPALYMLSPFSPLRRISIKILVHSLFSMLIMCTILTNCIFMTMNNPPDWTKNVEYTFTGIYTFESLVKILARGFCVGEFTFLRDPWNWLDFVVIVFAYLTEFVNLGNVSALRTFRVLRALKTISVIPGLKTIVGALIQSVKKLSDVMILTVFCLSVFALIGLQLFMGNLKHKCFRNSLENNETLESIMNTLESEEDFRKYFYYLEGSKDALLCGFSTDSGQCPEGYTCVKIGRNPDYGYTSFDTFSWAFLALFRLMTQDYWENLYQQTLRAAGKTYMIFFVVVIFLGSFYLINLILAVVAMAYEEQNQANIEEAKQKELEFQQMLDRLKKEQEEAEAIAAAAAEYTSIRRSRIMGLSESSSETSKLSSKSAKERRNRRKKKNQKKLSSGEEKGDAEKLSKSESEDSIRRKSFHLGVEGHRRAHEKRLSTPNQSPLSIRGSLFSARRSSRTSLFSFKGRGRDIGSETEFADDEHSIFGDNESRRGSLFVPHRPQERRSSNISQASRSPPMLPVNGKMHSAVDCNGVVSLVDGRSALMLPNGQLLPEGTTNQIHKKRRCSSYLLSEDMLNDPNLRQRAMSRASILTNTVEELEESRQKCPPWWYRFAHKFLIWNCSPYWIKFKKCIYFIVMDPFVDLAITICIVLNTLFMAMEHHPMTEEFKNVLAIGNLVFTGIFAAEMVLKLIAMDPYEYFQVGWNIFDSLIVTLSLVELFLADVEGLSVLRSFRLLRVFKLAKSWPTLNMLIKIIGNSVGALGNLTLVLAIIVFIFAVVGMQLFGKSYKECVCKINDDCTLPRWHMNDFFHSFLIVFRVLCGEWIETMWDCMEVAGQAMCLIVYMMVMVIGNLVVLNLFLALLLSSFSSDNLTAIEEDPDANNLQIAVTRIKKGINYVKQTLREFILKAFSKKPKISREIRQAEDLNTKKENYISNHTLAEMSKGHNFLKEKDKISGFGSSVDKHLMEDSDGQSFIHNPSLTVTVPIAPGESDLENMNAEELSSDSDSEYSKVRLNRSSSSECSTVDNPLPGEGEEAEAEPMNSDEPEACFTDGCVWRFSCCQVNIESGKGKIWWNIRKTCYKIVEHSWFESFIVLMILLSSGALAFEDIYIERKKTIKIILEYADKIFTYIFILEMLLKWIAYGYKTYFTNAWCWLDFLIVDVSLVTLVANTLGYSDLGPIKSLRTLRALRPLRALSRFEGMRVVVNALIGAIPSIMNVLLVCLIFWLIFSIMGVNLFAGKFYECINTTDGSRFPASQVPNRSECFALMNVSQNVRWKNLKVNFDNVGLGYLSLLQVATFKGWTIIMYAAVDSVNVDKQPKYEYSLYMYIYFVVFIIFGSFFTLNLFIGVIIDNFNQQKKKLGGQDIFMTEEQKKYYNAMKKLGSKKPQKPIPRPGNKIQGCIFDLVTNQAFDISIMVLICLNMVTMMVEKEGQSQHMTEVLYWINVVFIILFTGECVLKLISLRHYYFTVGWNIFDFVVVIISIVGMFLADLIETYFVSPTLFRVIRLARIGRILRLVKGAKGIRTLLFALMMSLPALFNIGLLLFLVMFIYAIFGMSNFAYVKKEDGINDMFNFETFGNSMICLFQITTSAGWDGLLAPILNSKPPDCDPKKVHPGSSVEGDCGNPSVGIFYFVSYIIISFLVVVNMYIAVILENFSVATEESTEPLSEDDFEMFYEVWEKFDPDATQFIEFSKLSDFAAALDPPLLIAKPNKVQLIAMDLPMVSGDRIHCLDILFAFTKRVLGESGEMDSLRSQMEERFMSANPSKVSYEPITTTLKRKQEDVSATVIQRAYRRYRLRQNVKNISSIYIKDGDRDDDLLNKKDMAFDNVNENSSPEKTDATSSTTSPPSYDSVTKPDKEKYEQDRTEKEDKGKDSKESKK
hNav1.7, sequence (Q07699 19-218 partner): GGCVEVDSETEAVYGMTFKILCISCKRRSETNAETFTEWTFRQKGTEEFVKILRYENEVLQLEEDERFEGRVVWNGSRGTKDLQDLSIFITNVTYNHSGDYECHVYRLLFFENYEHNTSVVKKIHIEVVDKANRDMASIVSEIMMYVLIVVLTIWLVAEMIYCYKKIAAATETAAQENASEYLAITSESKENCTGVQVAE

Row | Structure (SMILES) | IC50 [1] [nM] | IC50 [nM]
1 | C[C@@H](c1ccc(F)cc1)N1CCC[C@@H](Oc2cc(F)c(C(=O)NS(C)(=O)=O)cc2C2CC2)C1 (single isomer, unassigned) [Example 315] | 19.1 | –
2 | C[C@H](c1cc(Cl)cc(Cl)c1)N1C[C@@H]2C[C@H]1CN2Cc1cc(F)c(C(=O)NS(=O)(=O)C2CC2)cc1C1CC1 (single isomer, unassigned) [Example 563, trifluoroacetic acid salt] | – | 4.2
3 | CS(=O)(=O)NC(=O)c1cc(C2CC2)c(OCC2CN(C(c3ccccc3)c3ccccn3)C2)cc1F (stereo in doubt) [Example 119, (S)-5-Cyclopropyl-2-fluoro-N-(methylsulfonyl)-4-((1-(phenyl(pyridin-2-yl)methyl)azetidin-3-yl)methoxy)benzamide] | 306 | –
4 | CS(=O)(=O)NC(=O)c1cc(C2CC2)c(OCC2CCN(C(c3cc(Cl)cc(Cl)c3)C(F)F)CC2)cc1F (stereo in doubt) [Example 225, (S)-5-cyclopropyl-4-((1-(1-(3,5-dichlorophenyl)-2,2-difluoroethyl)piperidin-4-yl)methoxy)-2-fluoro-N-(methylsulfonyl)benzamide] | 17 | –
5 | CC(c1cc(Cl)cc(Cl)c1F)N1CCC(COc2cc(F)c(C(=O)NS(C)(=O)=O)cc2C2CC2)CC1 (stereo in doubt) [Example 236, (R)-5-cyclopropyl-4-((1-(1-(3,5-dichloro-2-fluorophenyl)ethyl)piperidin-4-yl)methoxy)-2-fluoro-N-(methylsulfonyl)benzamide] | 1.6 | –
6 | O=C(NS(=O)(=O)C1CC1)c1cc(C2CC2)c(O[C@@H]2CCCN(Cc3cc(Cl)cc(Cl)c3)C2)cc1F [Example 3, (R)-5-cyclopropyl-N-(cyclopropylsulfonyl)-4-((1-(3,5-dichlorobenzyl)piperidin-3-yl)oxy)-2-fluorobenzamide] | 2.6 | –
7 | CC(=O)N1CCC[C@@H](Oc2cc(F)c(C(=O)NS(=O)(=O)C3CC3)cc2C2CC2)C1 [Example 4, (R)-4-((1-acetylpiperidin-3-yl)oxy)-5-cyclopropyl-N-(cyclopropylsulfonyl)-2-fluorobenzamide] | – | 6600
8 | O=C(NS(=O)(=O)N1CCC1)c1cc(C2CC2)c(O[C@@H]2CCCN(Cc3cc(Cl)cc(Cl)c3)C2)cc1F [Example 5, (R)—N-(azetidin-1-ylsulfonyl)-5-cyclopropyl-4-((1-(3,5-dichlorobenzyl)piperidin-3-yl)oxy)-2-fluoroenzamide] | – | 7.1
9 | O=C(NS(=O)(=O)C1CC1)c1cc(C2CC2)c(O[C@@H]2CCCN(Cc3ccc(F)cc3Cl)C2)cc1F [Example 7, (R)-4-((1-(2-chloro-4-fluorobenzyl)piperidin-3-yl)oxy)-5-cyclopropyl-N-(cyclopropylsulfonyl)-2-fluorobenzamide] | – | 3.5
10 | O=C(NS(=O)(=O)N1CCC1)c1cc(C2CC2)c(O[C@@H]2CCCN(Cc3ccc(F)cc3F)C2)cc1F [Example 8, (R)—N-(azetidin-1-ylsulfonyl)-5-cyclopropyl-4-((1-(2,4-difluorobenzyl)-piperidin-3-yl)oxy)-2-fluorobenzamide] | – | 8.1
11 | O=C(NS(=O)(=O)C1CC1)c1cc(C2CC2)c(O[C@@H]2CCCN(Cc3ccc(F)cc3F)C2)cc1F [Example 9, (R)-5-cyclopropyl-N-(cyclopropylsulfonyl)-4-((1-(2,4-difluorobenzyl)-piperidin-3-yl)oxy)-2-fluorobenzamide] | – | 3.5
12 | CS(=O)(=O)NC(=O)c1cc(C2CC2)c(O[C@@H]2CCCN(Cc3c(Cl)cccc3Cl)C2)cc1F [Example 10, (R)-5-cyclopropyl-4-((1-(2,6-dichlorobenzyl)piperidin-3-yl)oxy)-2-fluoro-N-(methylsulfonyl)benzamide] | – | 4.1
13 | O=C(NS(=O)(=O)N1CCC1)c1cc(C2CC2)c(O[C@@H]2CCCN(CC3CCCCC3)C2)cc1F [Example 11, (R)—N-(azetidin-1-ylsulfonyl)-4-((1-(cyclohexylmethyl)piperidin-3-yl)oxy)-5-cyclopropyl-2-fluorobenzamide] | – | 47.4
